Values of other authors as cited in patent publication US20050192267A1, “Use of targeted oxidative therapeutic formulation in treatment of viral diseases” (priority 2004, published 2005).

Key:
E. coli = conditions: increasing concentration of peroxide ex-vivo in rabbit or human blood
[1] = tested on: peroxide-sensitive E. coli; conditions: infused into the blood of infected rabbits
Hepatitis C = conditions: chronic Hepatitis C; used alone

SMILES	direct bactericidal activity (E. coli)	bactericidal effect [1]	effectiveness of treatment (Hepatitis C)
OO [hydrogen peroxide, Hydrogen peroxide]	no evidence of direct bactericidal activity	no bactericidal effect	–
NC(=O)c1ncn([C@@H]2O[C@H](CO)[C@@H](O)[C@H]2O)n1 [Ribavirin, ribavirin]	–	–	does not appear to be effective
